Experimental data: patent US4175081A, “5-Substituted thiadiazole ureas” (priority 1977, dated 1979)

Legend:
[1] = tested on: Crabgrass (CG); experiment: Post-emergence herbicide test; type: in vivo, Digitaria sanquinalis; conditions: Digitaria sanguinalis, post-emergence, 336 h, two weeks after treatment; for pest or weed control at 4483.4 g/ha: 4 lb/acre; for pest or weed control at 8966.8 g/ha: 8 lb/acre
Method: (§1) Crabgrass (CG)--Digitaria sanquinalis
(§2) All crop and weed species were planted individually in 3' plastic pots containing potting soil. Four seeds each of corn, cotton, and snapbeans were seeded to a depth equal to the diameter of the seed. All other species were surface seeded and sprinkled with screened soil in an amount sufficient to cover the seed. Immediately after planting, all pots were watered by sub-irrigation in greenhouse trays. Pots for the pre-emergence phase were seeded one day before treatment.
(§3) Planting dates for the post-emergence phase were varied so that all seedlings would reach the desired stage of development simultaneously. The proper stage of seedling development for treatment in the post-emergence phase is as follows:
(§4) Spray hood constants required to deliver the above volume are as follows:
(§5) Formulations for spray applications were prepared in 50 ml volumes with the following three components: […]
(§6) Spray applications were made in a hood containing a removable belt and fixed spray nozzle. For passage through the spray hood, one pot of each specie (pre-emergence phase) was placed on the rear half of the flat. Treatments were removed to the greenhouse after spraying. Watering during the observation period was done only by sub-irrigation.
(§7) Two weeks after treatment, pre- and post-emergence injury or control was visually rated, and the results were as shown in the following tables. Pre-emergence data are provided in TABLE III and post-emergence data are provided in TABLE IV, for compounds having the formula illustrated in TABLE I. Correspondingly, pre-emergence and post-emergence data, respectively, are set forth in TABLES V AND VI, for compounds having the formula illustrated in TABLE II.

[2] = tested on: Johnson grass (JG); experiment: Post-emergence herbicide test; type: in vivo, Sorgum helepense; conditions: Sorghum halepense, 336 h, two weeks after treatment; for pest or weed control at 4483.4 g/ha: 4 lb/acre; for pest or weed control at 8966.8 g/ha: 8 lb/acre
Method: (§8) Johnson grass (JG)--Sorgum helepense
as §2, §3
(§9) Compounds were tested at rates of application equivalent to 8 lbs. of actual compound per acre in a spray volume of 38 gallons per acre. Spray hood constants required to deliver the above volume are as follows:
(§10) Formulations for spray applications were prepared in 50 ml volumes with the following three components:
(§11) Formulations for the 4 lbs/acre rate were prepared by adjusting the amount of active ingredient accordingly.
as §6, §7

[3] = tested on: Barnyard grass (BG); experiment: Post-emergence herbicide test; type: in vivo; conditions: Echinochloa crus-galli, 336 h, two weeks after treatment; for pest or weed control at 4483.4 g/ha: 4 lb/acre; for pest or weed control at 8966.8 g/ha: 8 lb/acre
Method: (§12) Barnyard grass (BG)--Echinochloa crus-galli
as §2, §3, §9, §10, §11, §6, §7

[4] = tested on: Amaranth pigweed (PW); experiment: Post-emergence herbicide test; type: in vivo, Amaranthus retroflexus; conditions: 336 h, two weeks after treatment; for pest or weed control at 4483.4 g/ha: 4 lb/acre
Method: Amaranth pigweed (PW)--Amaranthus retroflexus
as §2, §3
(§13) Pigweed and turnips: 1 or 2 true leaves above visible cotyledons.
as §9, §10, §11, §6, §7

[5] = tested on: Turnip (TP); experiment: Post-emergence herbicide test; type: in vivo, Brassica sp.; conditions: Brassica rapa, post-emergence, 336 h, two weeks after treatment; for pest or weed control at 2241.7 g/ha: 2 lb/acre; for pest or weed control at 4483.4 g/ha: 4 lb/acre; for pest or weed control at 8966.8 g/ha: 8 lb/acre
Method: (§14) Turnip (TP)--Brassica sp.
as §2, §3, §13, §4, §5, §6, §7

[6] = tested on: Cotton (CT); experiment: Post-emergence herbicide test; type: in vivo, Gossypium hirsutum var. DPL smooth leaf; conditions: Gossypium hirsutum, post-emergence, 336 h, two weeks after treatment; for pest or weed control at 4483.4 g/ha: 4 lb/acre; for pest or weed control at 8966.8 g/ha: 8 lb/acre
Method: (§15) Cotton (CT)--Gossypium hirsutum var. DPL smooth leaf
as §2, §3
Cotton: first true leaf 1' in length; expanded cotyledons.
as §4, §10, §11, §6, §7

[7] = tested on: Corn (CN); experiment: Post-emergence herbicide test; type: in vivo; conditions: Zea mays, 336 h, two weeks after treatment; for pest or weed control at 4483.4 g/ha: 4 lb/acre; for pest or weed control at 8966.8 g/ha: 8 lb/acre
Method: as §2, §3, §9, §10, §11, §6, §7

[8] = tested on: Bean (BN); experiment: Post-emergence herbicide test; type: in vivo, Phaseolus vulgaris var. Black Valentine; conditions: Phaseolus vulgaris, post-emergence, 336 h, two weeks after treatment; for pest or weed control at 4483.4 g/ha: 4 lb/acre; for pest or weed control at 8966.8 g/ha: 8 lb/acre
Method: (§16) Bean (BN)--Phaseolus vulgaris var. Black Valentine
as §2, §3
Beans: primary leaves expanded, growing point at primary leaf nodes.
as §4, §10, §11, §6, §7

[9] = tested on: Crabgrass (CG); experiment: Pre-emergence herbicide test; type: in vivo, Digitaria sanquinalis; conditions: Digitaria sanguinalis, pre-emergence, 336 h, two weeks after treatment; for pest or weed control at 8966.8 g/ha: 8 lb/acre
Method: as §1, §2, §4, §5, §6, §7

[10] = tested on: Johnson grass (JG); experiment: Pre-emergence herbicide test; type: in vivo, Sorgum helepense; conditions: Sorghum halepense, 336 h, two weeks after treatment; for pest or weed control at 8966.8 g/ha: 8 lb/acre
Method: as §8, §2, §9, §10, §11, §6, §7

[11] = tested on: Barnyard grass (BG); experiment: Pre-emergence herbicide test; type: in vivo; conditions: Echinochloa crus-galli, 336 h, two weeks after treatment; for pest or weed control at 8966.8 g/ha: 8 lb/acre
Method: as §12, §2, §9, §10, §11, §6, §7

[12] = tested on: Turnip (TP); experiment: Pre-emergence herbicide test; type: in vivo, Brassica sp.; conditions: Brassica rapa, pre-emergence, 336 h, two weeks after treatment; for pest or weed control at 8966.8 g/ha: 8 lb/acre
Method: as §14, §2, §4, §5, §6, §7

[13] = tested on: Cotton (CT); experiment: Pre-emergence herbicide test; type: in vivo, Gossypium hirsutum var. DPL smooth leaf; conditions: Gossypium hirsutum, 336 h, two weeks after treatment; for pest or weed control at 8966.8 g/ha: 8 lb/acre
Method: as §15, §2, §9, §10, §11, §6, §7

[14] = tested on: Corn (CN); experiment: Pre-emergence herbicide test; type: in vivo; conditions: Zea mays, 336 h, two weeks after treatment; for pest or weed control at 8966.8 g/ha: 8 lb/acre
Method: as §2, §9, §10, §11, §6, §7

[15] = tested on: Bean (BN); experiment: Pre-emergence herbicide test; type: in vivo, Phaseolus vulgaris var. Black Valentine; conditions: Phaseolus vulgaris, 336 h, two weeks after treatment; for pest or weed control at 8966.8 g/ha: 8 lb/acre
Method: as §16, §2, §9, §10, §11, §6, §7

SMILES	pest or weed control at 4483.4 g/ha [1] [%]	pest or weed control at 4483.4 g/ha [2] [%]	pest or weed control at 4483.4 g/ha [3] [%]	pest or weed control at 4483.4 g/ha [4] [%]	pest or weed control at 2241.7 g/ha [5] [%]	pest or weed control at 4483.4 g/ha [5] [%]	pest or weed control at 4483.4 g/ha [6] [%]	pest or weed control at 4483.4 g/ha [7] [%]	pest or weed control at 4483.4 g/ha [8] [%]	pest or weed control at 8966.8 g/ha [9] [%]	pest or weed control at 8966.8 g/ha [10] [%]	pest or weed control at 8966.8 g/ha [11] [%]	pest or weed control at 8966.8 g/ha [12] [%]	pest or weed control at 8966.8 g/ha [13] [%]	pest or weed control at 8966.8 g/ha [14] [%]	pest or weed control at 8966.8 g/ha [15] [%]	pest or weed control at 8966.8 g/ha [1] [%]	pest or weed control at 8966.8 g/ha [2] [%]	pest or weed control at 8966.8 g/ha [3] [%]	pest or weed control at 8966.8 g/ha [5] [%]	also measured
CNC(=O)Nc1nnc(SCc2ccc([N+](=O)[O-])cc2)s1 [Example 55]	40	30	20	90	60	90	50	20	100												pest or weed control at 2241.7 g/ha ([4]; 2 lb/acre): 90%
CNC(=O)Nc1nnc(SCC(=O)OC)s1 [Example 56]	30	20	20	60		70	60	30	50												
CNC(=O)Nc1nnc(-c2ccc(C)cc2)s1 [Example 76]										20	0	30	40	100	50	80	40	30	40	60	pest or weed control at 8966.8 g/ha [6]: 50%; pest or weed control at 8966.8 g/ha [7]: 30%; pest or weed control at 8966.8 g/ha [8]: 50%
CCCCCCCCSc1nnc(NC(=O)NC)s1 [Example 78]																					pest or weed control ([9]; 1 lb/acre): 20%; pest or weed control at 1120.85 g/ha ([10]; 1 lb/acre): 0%; pest or weed control at 1120.85 g/ha ([11]; 1 lb/acre): 0%; pest or weed control at 1120.85 g/ha ([12]; 1 lb/acre): 0%; pest or weed control at 1120.85 g/ha ([13]; 1 lb/acre): 30%; pest or weed control at 1120.85 g/ha ([14]; 1 lb/acre): 0%; pest or weed control at 1120.85 g/ha ([15]; 1 lb/acre): 80%; pest or weed control at 1120.85 g/ha ([1]; 1 lb/acre): 30%; pest or weed control at 1120.85 g/ha ([2]; 1 lb/acre): 30%; pest or weed control at 1120.85 g/ha ([3]; 1 lb/acre): 40%; pest or weed control at 1120.85 g/ha ([5]; 1 lb/acre): 100%; pest or weed control at 1120.85 g/ha ([6]; 1 lb/acre): 80%; pest or weed control at 1120.85 g/ha ([7]; 1 lb/acre): 40%; pest or weed control at 1120.85 g/ha ([8]; 1 lb/acre): 100%
CCSCCSc1nnc(NC(=O)NC)s1 [Example 80]										50	20	20	0	50	0	100	90	60	50	100	pest or weed control at 8966.8 g/ha [6]: 80%; pest or weed control at 8966.8 g/ha [7]: 0%; pest or weed control at 8966.8 g/ha [8]: 100%
CCS(=O)(=O)c1nnc(NC(=O)NC)s1 [Example 81]	100	100	80		100	100	100	50	100												pest or weed control ([9]; 2 lb/acre): 90%; pest or weed control at 4483.4 g/ha ([9]; 4 lb/acre): 90%; pest or weed control at 2241.7 g/ha ([10]; 2 lb/acre): 40%; pest or weed control at 4483.4 g/ha ([10]; 4 lb/acre): 40%; pest or weed control at 2241.7 g/ha ([11]; 2 lb/acre): 60%; pest or weed control at 4483.4 g/ha ([11]; 4 lb/acre): 60%; pest or weed control at 2241.7 g/ha ([12]; 2 lb/acre): 80%; pest or weed control at 4483.4 g/ha ([12]; 4 lb/acre): 80%; pest or weed control at 2241.7 g/ha ([13]; 2 lb/acre): 100%; pest or weed control at 4483.4 g/ha ([13]; 4 lb/acre): 100%; pest or weed control at 2241.7 g/ha ([14]; 2 lb/acre): 0%; pest or weed control at 4483.4 g/ha ([14]; 4 lb/acre): 0%; pest or weed control at 2241.7 g/ha ([15]; 2 lb/acre): 60%; pest or weed control at 4483.4 g/ha ([15]; 4 lb/acre): 60%; pest or weed control ([1]; 2 lb/acre): 100%; pest or weed control at 2241.7 g/ha ([6]; 2 lb/acre): 90%; pest or weed control ([7]; 2 lb/acre): 100%; pest or weed control at 2241.7 g/ha ([8]; 2 lb/acre): 100%
